# System: MDA-MB-231 tumors
# Experiment: MDA-MB-231 human triple negative breast carcinoma xenograft in athymic nude mice
# Format: in vivo, mouse
# Details: MDA-MB-231 xenograft mice, 24 hours after first dose and at endpoint/Day 29
# Protocol: Tumor Cell Culture and Implantation: MDA-MB-231 cells were grown to mid-log phase in RPMI 1640 medium containing 10% fetal bovine serum, 2 mM glutamine, 100 units/mL sodium penicillin G, 25 μg/mL gentamicin, and 100 μg/mL streptomycin sulfate. The tumor cells were cultured in tissue culture flasks in a humidified incubator at 37° C., in an atmosphere of 5% CO2 and 95% air. The cells were harvested during exponential growth and resuspended in cold phosphate buffered saline (PBS). Each test animal was injected subcutaneously in the right flank with 5×10^6 MDA-MB-231 cells in a 0.1 mL cell suspension. Tumor growth was monitored as the average tumor size approached the target range of 100 to 150 mm^3. Tumors were measured in two dimensions using calipers, and volume was calculated using the formula:
# where w=width and l=length in mm of a MDA-MB-231 tumor. […]
# Endpoint and Tumor Growth Inhibition (TGI) Analysis: Tumors were measured using calipers twice a week for the study duration. […] The study ended on Day 29 and data from this day was analyzed to determine the MTV (n), the median tumor volume for the number of animals, n, on the final day (Day 29) for each group. […] Percent tumor growth inhibition (% TGI) was defined as the difference between the MTV of the designated control group (Group 1) and the MTV of the drug-treated group, expressed as a percentage of the MTV of the control; group: […]
smiles,measurement,value
COc1cc2c(C)c(CC(=O)N3CCOCC3)c(=O)oc2c(C=O)c1O [MKC-8866],exposure (plasma compound levels),significantly higher with multi-dosing
